Experimental data as given in patent publication US20040229942A1, “Analeptic and antidepressant combinations” (Cephalon Inc, priority 2003, published 2004).

Key:
[1] = system: patients previously diagnosed with MDD (single episode or recurrent); test: Clinical study: modafinil started together with an SSRI (fluoxetine or paroxetine) in MDD patients, depressive symptom assessment (HAMD-21, HAMD-31, response, remission); details: human, in vivo
Method: Eligible patients were previously diagnosed with MDD (single episode or recurrent), […] had significant fatigue (Fatigue Severity Scale [FSS] score of greater than or equal to 4), and had not taken antidepressant therapy for greater than or equal to 4 weeks. Patients were evaluated at screening, baseline (shown in Table 1), and weeks 1, 2, 3, 4, 5, and 6.
Patients were then started on a combination of an SSRI and modafinil.
Modafinil was initiated at 100 mg/day for 3 days and then titrated to 200 mg/day, depending on response and tolerability. SSRI therapy was either fluoxetine or paroxetine administered at 20 mg/day for 6 weeks.
Depressive symptom changes were analyzed using HAMD-31, each of which were videotaped and rated independently, and HAMD-21 total score evaluations. HAMD-21 total score analyses were also performed to evaluate response and remission rates. Changes in fatigue were assessed using the FSS. A fatigue response was defined as an FSS score of less than 4 at any post-baseline visit. […] Subjective sleepiness was assessed using the Epworth Sleepiness Scale (ESS). […] Symptoms associated with depression, including fatigue, mood, motivation, and concentration, were evaluated using patient-assessed Visual Analogue Scales (VAS).
Continuous variables were analyzed using a paired t-test for normally distributed data or Wilcoxon signed rank test for non-normal data. […]

rats = rats (Touret et al., 1995; Edgar and Seidel, 1997); cited from earlier work
cats = cats (Lin et al., 1992); cited from earlier work
canines = canines (Shelton et al., 1995); cited from earlier work
non-human primates = non-human primates (Hernant et al, 1991); cited from earlier work
[2] = system: major depressive disorder; details: at 6 weeks; cited from earlier work

Row | SMILES | overall conclusion on adjuvant effect in patients with depression and significant fatigue [1] | wakefulness (rats) | wakefulness (cats) | wakefulness (canines) | wakefulness (non-human primates) | response to antidepressant therapy [2]
1 | NC(=O)C[S+]([O-])C(c1ccccc1)c1ccccc1 (stereo not drawn) [Modafinil, 2-(benzhydrylsulfinyl) acetamide] | rapid-acting and effective adjuvant medication | promotes wakefulness | promotes wakefulness | promotes wakefulness | promotes wakefulness | –
2 | CNCCC(Oc1ccc(C(F)(F)F)cc1)c1ccccc1 (stereo not drawn) [fluoxetine] | – | – | – | – | – | about 50%
